According to patent publication EP2762573A1, “In vitro method for determining cholestatic properties of a compound” (priority 2013, dated 2014):

Legend:
Settings in all cases: male, C57BL/6, mouse
[1] = system: Bcl2l11; assay: Biomarkers validation by q-pcr in precision cut liver slices: Bcl2l11 expression
Procedure: (§1) 23-weeks old male C57BL/6 mice were obtained from Harlan (Horst, The Netherlands). Animals were kept for 1 week at a housing temperature of 22°C and at a relative humidity of 30-70%. The lighting cycle was 12-h light and 12-h dark. At the age of 24 weeks animals were sacrificed by an overdose of isoflurane. The treatment protocol was approved by the Ethical Committee for Animal Experiments at Wageningen University.
(§2) Immediately after the animals were killed the liver was perfused with PBS and placed in ice-cold Krebs-Henseleit buffer (KHB) (pH 7.4, supplemented with 11 mM glucose). Liver tissue was transported to the laboratory within approximately 30 min and cylindrical liver cores were produced using a surgical biopsy punch with diameter of 5 mm (KAI, SynErgo Europe, Romania). Liver cores were placed in a Krumdieck tissue slicer (Alabama Research and Development, Munford, AL) filled with ice-cold KHB aerated with carbogen and supplemented with 11 mM glucose. Precesion cut liver slices (PCLS) with a diameter of 5 mm, a thickness of 0.2 mm and a weight of approximately 10 mg were prepared. Immediately after preparation, slices were transferred into culture plates filled with pre-warmed (37 degrees C) Williams E medium (WEM). Three liver slices were pre-cultured in one well of the 6-well plate filled with 4 ml of WEM for one hour with continuous shaking (70 rpm). Incubations were performed in an oxygen controlled incubator (Galaxy 48 R New Brunswick, Nijmegen, the Netherlands) at 80% of oxygen; 5% CO2 and the remaining gas volume was filled up to […] with N2. After one hour of pre-incubation, media were removed and replaced with fresh media containing test compounds or appropriate solvents. After incubations, samples were snap-frozen in liquid nitrogen and stored in -80 °C for further analysis. Samples dedicated to histology were stored in 4 % formaldehyde at room temperature.
(§3) PCLS were incubated at the same conditions as described above. Slices were exposed for 24 and 48 hours to one concentration of the tested compounds or controls. Concentrations used in the exposure experiments were preselected in the dose selection experiments for each drug individually. […] For the necrotic compounds: 1000 uM acetaminophen, 5 µM paraquat and 1000 uM isoniazid. Liver slices obtained from five mice were used in five toxic compound or control exposure experiments performed at the same time. Dose selection experiments and exposure experiments were performed at different days. Therefore, ATP, LDH, and protein assays were performed again for the exposure experiments to confirm that the selected doses did also not affect slice viability in these experiments.
(§4) In further studies, expression of ten candidate biomarkers in PCLS was analyzed by q-pcr using the Biorad CFX96 TM Real-Time Detection System (Bio-Rad, Veenendaal, The Netherlands) with the following cycling conditions: 15 min 95°C followed by 40 cycles of 15s 95 °C and 1 min 60 °C. Reactions were performed in 10 µl and contained 20 ng cDNA, 1x TaqMan PCR Master Mix (Applied Biosystems, Foster City, CA), and depending on the analysed gene, 250 nM probe and 900 nM primer (for actin b) or 1xTaqMan gene expression assay (for the remaining genes) (Applied Biosystems, foster City, CA).

[2] = system: Parp16; assay: Biomarkers validation by q-pcr in precision cut liver slices: Parp16 expression
Procedure: as §1, §2, §3, §4

[3] = system: Mras; assay: Biomarkers validation by q-pcr in precision cut liver slices: Mras expression
Procedure: as §1, §2, §3, §4

[4] = system: Myo1e; assay: Biomarkers validation by q-pcr in precision cut liver slices: Myo1e expression
Procedure: as §1, §2, §3, §4

[5] = system: Nme6; assay: Biomarkers validation by q-pcr in precision cut liver slices: Nme6 expression
Procedure: as §1, §2, §3, §4

[6] = system: ABCG5; assay: Biomarkers validation by q-pcr in precision cut liver slices: ABCG5 expression
Procedure: as §1, §2, §3, §4

[7] = system: ABCG8; assay: Biomarkers validation by q-pcr in precision cut liver slices: ABCG8 expression
Procedure: as §1, §2, §3, §4

[8] = system: SERPINE1; assay: Biomarkers validation by q-pcr in precision cut liver slices: SERPINE1 expression
Procedure: as §1, §2, §3, §4

[9] = system: BAAT; assay: Biomarkers validation by q-pcr in precision cut liver slices: BAAT expression
Procedure: as §1, §2, §3, §4

[10] = system: KLF15; assay: Biomarkers validation by q-pcr in precision cut liver slices: KLF15 expression
Procedure: as §1, §2, §3, §4

[11] = system: PCLS; assay: Cytotoxicity analysis - dose selection experiments (LDH, ATP, protein assay)
Procedure: as §1, §2, §3

Structure (SMILES): CC(=O)Nc1ccc(O)cc1 [APAP, acetaminophen]
- *fold change 1, gene expression level Bcl2111 [1]: 1,9
- *fold change 2, gene expression level Bcl2111 [1]: 1,1
- *fold change 3, gene expression level Bcl2111 [1]: 2,0
- *fold change 4, gene expression level Bcl2111 [1]: 2,4
- *fold change 5, gene expression level Bcl2111 [1]: 1,7
- *fold change 1, gene expression level Parp 16 [2]: 1,4
- *fold change 2, gene expression level Parp 16 [2]: -1,3
- *fold change 3, gene expression level Parp 16 [2]: 1,4
- *fold change 4, gene expression level Parp 16 [2]: 1,5
- *fold change 5, gene expression level Parp 16 [2]: 1,6
- *fold change 1, gene expression level Mras [3]: 1,7
- *fold change 2, gene expression level Mras [3]: -1,0
- *fold change 3, gene expression level Mras [3]: 1,3
- *fold change 4, gene expression level Mras [3]: 1,2
- *fold change 5, gene expression level Mras [3]: 1,4
- *fold change 1, gene expression level Myo 1e [4]: 1,1
- *fold change 2, gene expression level Myo 1e [4]: -1,2
- *fold change 3, gene expression level Myo 1e [4]: 1,4
- *fold change 4, gene expression level Myo 1e [4]: 1,4
- *fold change 5, gene expression level Myo 1e [4]: 1,4
- *fold change 1, gene expression level Nme6 [5]: -1,2
- *fold change 2, gene expression level Nme6 [5]: -1,2
- *fold change 3, gene expression level Nme6 [5]: -1,1
- *fold change 4, gene expression level Nme6 [5]: -1,3
- *fold change 5, gene expression level Nme6 [5]: 1,0
- *fold change 1, gene expression level ABCG5 [6]: -2,1
- *fold change 2, gene expression level ABCG5 [6]: -1,3
- *fold change 3, gene expression level ABCG5 [6]: 1,4
- *fold change 4, gene expression level ABCG5 [6]: -1,4
- *fold change 5, gene expression level ABCG5 [6]: 1,1
- *fold change 1, gene expression level ABCG8 [7]: -1,7
- *fold change 2, gene expression level ABCG8 [7]: -1,2
- *fold change 3, gene expression level ABCG8 [7]: 1,4
- *fold change 4, gene expression level ABCG8 [7]: -1,1
- *fold change 5, gene expression level ABCG8 [7]: 1,4
- *fold change 1, gene expression level SERPINE1 [8]: -1,6
- *fold change 2, gene expression level SERPINE1 [8]: -1,4
- *fold change 3, gene expression level SERPINE1 [8]: 1,2
- *fold change 4, gene expression level SERPINE1 [8]: -1,3
- *fold change 5, gene expression level SERPINE1 [8]: 1,5
- *fold change 1, gene expression level BAAT [9]: -5,0
- *fold change 2, gene expression level BAAT [9]: -2,0
- *fold change 3, gene expression level BAAT [9]: -1,4
- *fold change 4, gene expression level BAAT [9]: -2,8
- *fold change 5, gene expression level BAAT [9]: -1,5
- *fold change 1, gene expression level KLF15 [10]: -1,5
- *fold change 2, gene expression level KLF15 [10]: -1,2
- *fold change 3, gene expression level KLF15 [10]: -1,4
- *fold change 4, gene expression level KLF15 [10]: -1,1
- *fold change 5, gene expression level KLF15 [10]: 1,2
- highest concentration that did not cause significant increase of toxicity [11]: 1000 µM

Structure (SMILES): CN(C)CCCN1c2ccccc2Sc2ccc(Cl)cc21 [CPZ, chlorpromazine]
- *fold change 1, gene expression level Bcl2111 [1]: -1,2
- *fold change 2, gene expression level Bcl2111 [1]: -1,4
- *fold change 3, gene expression level Bcl2111 [1]: -1,2
- *fold change 4, gene expression level Bcl2111 [1]: -1,9
- *fold change 5, gene expression level Bcl2111 [1]: -2,3
- *fold change 1, gene expression level Parp 16 [2]: -1,1
- *fold change 2, gene expression level Parp 16 [2]: -1,4
- *fold change 3, gene expression level Parp 16 [2]: -1,1
- *fold change 4, gene expression level Parp 16 [2]: -1,4
- *fold change 5, gene expression level Parp 16 [2]: -1,0
- *fold change 1, gene expression level Mras [3]: 1,3
- *fold change 2, gene expression level Mras [3]: 2,0
- *fold change 3, gene expression level Mras [3]: 2,6
- *fold change 4, gene expression level Mras [3]: 1,4
- *fold change 5, gene expression level Mras [3]: 1,1
- *fold change 1, gene expression level Myo 1e [4]: -1,1
- *fold change 2, gene expression level Myo 1e [4]: -1,0
- *fold change 3, gene expression level Myo 1e [4]: 1,1
- *fold change 4, gene expression level Myo 1e [4]: 1,0
- *fold change 5, gene expression level Myo 1e [4]: -1,1
- *fold change 1, gene expression level Nme6 [5]: 1,1
- *fold change 2, gene expression level Nme6 [5]: 1,3
- *fold change 3, gene expression level Nme6 [5]: 1,7
- *fold change 4, gene expression level Nme6 [5]: 1,3
- *fold change 5, gene expression level Nme6 [5]: 1,2
- *fold change 1, gene expression level ABCG5 [6]: -4,2
- *fold change 2, gene expression level ABCG5 [6]: -2,9
- *fold change 3, gene expression level ABCG5 [6]: -6,7
- *fold change 4, gene expression level ABCG5 [6]: -3,8
- *fold change 5, gene expression level ABCG5 [6]: -1,0
- *fold change 1, gene expression level ABCG8 [7]: -2,9
- *fold change 2, gene expression level ABCG8 [7]: -2,1
- *fold change 3, gene expression level ABCG8 [7]: -5,4
- *fold change 4, gene expression level ABCG8 [7]: -4,5
- *fold change 5, gene expression level ABCG8 [7]: -1,1
- *fold change 1, gene expression level SERPINE1 [8]: 2,9
- *fold change 2, gene expression level SERPINE1 [8]: -1,4
- *fold change 3, gene expression level SERPINE1 [8]: -4,7
- *fold change 4, gene expression level SERPINE1 [8]: -5,8
- *fold change 5, gene expression level SERPINE1 [8]: -1,8
- *fold change 1, gene expression level BAAT [9]: -2,3
- *fold change 2, gene expression level BAAT [9]: -3,3
- *fold change 3, gene expression level BAAT [9]: -8,5
- *fold change 4, gene expression level BAAT [9]: -6,4
- *fold change 5, gene expression level BAAT [9]: 1,4
- *fold change 1, gene expression level KLF15 [10]: -2,0
- *fold change 2, gene expression level KLF15 [10]: -1,8
- *fold change 3, gene expression level KLF15 [10]: -3,2
- *fold change 4, gene expression level KLF15 [10]: -1,8
- *fold change 5, gene expression level KLF15 [10]: 1,6
- highest concentration that did not cause significant increase of toxicity [11]: 10 µM

Structure (SMILES): CCCC(CCC)C(=O)O [VA, valproic acid]
- highest concentration that did not cause significant increase of toxicity [11]: 200 µM
